According to US4409239A, “Propylene glycol diester solutions of PGE-type compounds” (Syntex (U.S.A.) Inc., priority 1982, dated 1983):

How the values were obtained:
[1] = Stability in peanut oil, USP on storage (comparison); format: physicochemical; conditions: 2 weeks storage at 60° C., 50 mcg per ml peanut oil, 20160 min
[2] = Stability of an E-type prostaglandin in propylene glycol dicaprylate/dicaprate (Captex 200) on storage; format: physicochemical; conditions: for % Remaining of Initial Drug Concentration: 0.25 mg/ml in Captex 200, sealed glass ampules
Protocol: A solution of 0.25 mg (dl)-9-keto-11α,15α-dihydroxy-16-phenoxy-17,18,19,20-tetranorprosta-4,5,13-trans-trienoic acid methyl ester per ml in propylene glycol dicaprylate/dicaprate (Captex 200) was made by dissolving said compound in the solvent with the aid of a magnetic stirrer. Aliquots of this solution were filled into glass ampules and sealed. The ampules were then stored at various temperatures for various durations.

- drug remaining [1]: 77.8%
- % Remaining of Initial Drug Concentration ([2]; 0 month, 45° C.): 100%
- % Remaining of Initial Drug Concentration ([2]; 0 month, 60° C.): 100%
- % Remaining of Initial Drug Concentration ([2]; 1 month, 60° C., 43800 min): 97.6%
- % Remaining of Initial Drug Concentration ([2]; 3 months, 45° C., 131400 min): 100.7%
- % Remaining of Initial Drug Concentration ([2]; 3 months, 60° C., 131400 min): 90.0%
- stability in Captex 200 (in words) ([2]; storage at 45° C. and 60° C., 0.25 mg/ml in Captex 200): quite stable
Compound: COC(=O)CCC=C=CCC1C(=O)CC(O)C1C=CC(O)COc1ccccc1 (stereo not drawn) [(dl)-9-keto-11α,15α-dihydroxy-16-phenoxy-17,18,19,20-tetranorprosta-4,5,13-trans-trienoic acid methyl ester]
